Among the data in ChEMBL document CHEMBL3853333, “Synthesis of novel arylaminoquinazolinylurea derivatives and their antiproliferative activities against bladder cancer cell line” (2016) are GI50 values, retold here.

The assay in a line: Antiproliferative activity against human RT112 cells after 72 hrs by MTT assay. The assay is classed as functional. The conditions noted are these: RT-112, 72 h. For orientation: Tetrazolium dyes change colour on reduction, which living cells bring about.

A value given as a limit tells only on which side of the number the result lay.

Broadly, the GI50 is the concentration giving 50% growth inhibition. The low end stands for greater sensitivity of the cells, the high end for lower sensitivity of the cells. `COc1cc(Nc2ncnc3c(NC(=O)Nc4cccc(Oc5ccccc5)c4)cccc23)cc(OC)c1` returned a GI50 of 14000 nM. The same measure for `COc1cc(Nc2ncnc3c(NC(=O)c4cccc(N5CCN(C)CC5)c4)cccc23)cc(OC)c1`: over 20000 nM. The value for `COc1cc(Nc2ncnc3c(NC(=O)Nc4cccc(C(F)(F)F)c4F)cccc23)cc(OC)c1` was 471 nM; that for `COc1cc(Nc2ncnc3c(NC(=O)Nc4ccc(C(F)(F)F)cc4[N+](=O)[O-])cccc23)cc(OC)c1` was over 20000 nM; that for `COc1cc(Nc2ncnc3c(NC(=O)Nc4ccc([N+](=O)[O-])cc4)cccc23)cc(OC)c1` was over 20000 nM. The same measure for `COc1cc(Nc2ncnc3c(NC(=O)Nc4cccc(C)c4C)cccc23)cc(OC)c1`: 5910 nM; for `COc1cc(Nc2ncnc3c(NC(=O)c4ccc(CN(C)C)cc4)cccc23)cc(OC)c1`: 4370 nM; for `COc1cc(Nc2ncnc3c(NC(=O)Nc4ccc(F)cc4F)cccc23)cc(OC)c1`: 2460 nM. Turning to `CCOC(=O)c1ccc(NC(=O)Nc2cccc3c(Nc4cc(OC)cc(OC)c4)ncnc23)cc1`, the GI50 was determined as 317 nM. The value for `COc1cc(Nc2ncnc3c(NC(=O)Nc4ccc(F)cc4C(F)(F)F)cccc23)cc(OC)c1` was 2970 nM; that for `CCN(CC)CCCCNc1ncc2cc(-c3cc(OC)cc(OC)c3)c(NC(=O)NC(C)(C)C)nc2n1` [PD-173074] was 15 nM; that for `COc1cc(CCc2cc(NC(=O)c3ccc(N4C[C@@H](C)N[C@@H](C)C4)cc3)n[nH]2)cc(OC)c1` [FEXAGRATINIB] was 29.2 nM.

The molecule `COc1cc(Nc2ncnc3c(NC(=O)Nc4cc(Cl)c(Cl)cc4Cl)cccc23)cc(OC)c1` registered a GI50 of 4890 nM. The same measure for `COc1cc(Nc2ncnc3c(NC(=O)Nc4ccc(C)cc4C)cccc23)cc(OC)c1`: 1290 nM; for `COc1cc(Nc2ncnc3c(NC(=O)Nc4cccc(Cl)c4Cl)cccc23)cc(OC)c1`: 63.2 nM. The same measure for `COc1cc(Nc2ncnc3c(NC(=O)c4cc(=O)c5ccccc5o4)cccc23)cc(OC)c1`: over 20000 nM; for `COc1cc(NC(=O)Nc2cccc3c(Nc4cc(OC)cc(OC)c4)ncnc23)cc(OC)c1`: 366 nM.

`COc1cc(Nc2ncnc3c(NC(=O)c4ccc(N5CCN(C)CC5)cc4)cccc23)cc(OC)c1` returned a GI50 of 14200 nM. The same measure for `COc1cc(Nc2ncnc3c(NC(=O)Nc4ccc(C(F)(F)F)cc4Cl)cccc23)cc(OC)c1`: 1080 nM; for `COc1cc(Nc2ncnc3c(NC(=O)Nc4ccccc4Cl)cccc23)cc(OC)c1`: 356 nM; for `COc1cc(Nc2ncnc3c(NC(=O)Nc4cc(F)cc(F)c4)cccc23)cc(OC)c1`: 2630 nM. The same measure for `COc1cc(Nc2ncnc3c(NC(=O)Nc4ccc(Cl)c(C(F)(F)F)c4)cccc23)cc(OC)c1`: over 20000 nM. The same measure for `COc1cc(Nc2ncnc3c(NC(=O)Nc4cc(Cl)cc(Cl)c4)cccc23)cc(OC)c1`: 30.2 nM; for `COc1cc(Nc2ncnc3c(NC(=O)Nc4ccc(C(F)(F)F)cc4)cccc23)cc(OC)c1`: 3920 nM; for `COc1cc(Nc2ncnc3c(NC(=O)Nc4ccc(Cl)cc4)cccc23)cc(OC)c1`: 2490 nM. Turning to `COc1cc(Nc2ncnc3c(NC(=O)Nc4ccc5c(c4)OCCO5)cccc23)cc(OC)c1`, it took 2750 nM to inhibit growth by half (GI50). `COc1cc(Nc2ncnc3c(NC(=O)Nc4cc(C(F)(F)F)cc(C(F)(F)F)c4)cccc23)cc(OC)c1` showed a GI50 of 467 nM. The value for `COc1cc(Nc2ncnc3c(NC(=O)Nc4ccc(Cl)c(Cl)c4)cccc23)cc(OC)c1` was 6230 nM; that for `COc1cc(Nc2ncnc3c(NC(=O)Nc4ccc(C)c(C)c4)cccc23)cc(OC)c1` was 8.8 nM; that for `COc1cc(Nc2ncnc3c(NC(=O)Nc4cccc(Cc5ccccc5)c4)cccc23)cc(OC)c1` was 1740 nM. `COc1cc(Nc2ncnc3c(NC(=O)Nc4cc(C)cc(C)c4)cccc23)cc(OC)c1` registered a GI50 of 10100 nM. As for `COc1cc(Nc2ncnc3c(NC(=O)Nc4ccc(Cl)cc4Cl)cccc23)cc(OC)c1`, the GI50 was determined as 3060 nM.
